# Assay results taken from ChEMBL document CHEMBL5634099, “Pyrrole-thiazolidinone hybrids as a new structural class of broad-spectrum anti-infectives” (Eur J Med Chem, 2023).
# How the values were obtained:
# Staphylococcus aureus [1] = experiment: Antibacterial activity against vancomycin-resistant Staphylococcus aureus VRS 4 clinical isolate assessed as bacterial growth inhibition incubated for 16 to 18 hrs by CLSI based susceptibility testing method; format: functional; details: time 16-18 hrs
# Staphylococcus aureus [2] = experiment: Antibacterial activity against vancomycin-resistant Staphylococcus aureus VRS 12 clinical isolate assessed as bacterial growth inhibition incubated for 16 to 18 hrs by CLSI based susceptibility testing method; format: functional; details: time 16-18 hrs
# Staphylococcus aureus [3] = experiment: Antibiofilm activity against Staphylococcus aureus ATCC 29213 assessed as reduction in biofilm formation at 10 times MIC incubated for 24 hrs by absorbance based assay relative to control; format: functional; set-up: scale not given: the % may be the effect or the level left
# Staphylococcus aureus [4] = experiment: Antibacterial activity against vancomycin-resistant Staphylococcus aureus VRS 1 clinical isolate assessed as bacterial growth inhibition incubated for 16 to 18 hrs by CLSI based susceptibility testing method; format: functional; details: time 16-18 hrs
# Staphylococcus aureus [5] = experiment: Antibacterial activity against methicillin-resistant Staphylococcus aureus NR 191 clinical isolate assessed as bacterial growth inhibition incubated for 16 to 18 hrs by CLSI based susceptibility testing method; format: functional; details: time 16-18 hrs
# Staphylococcus aureus [6] = experiment: Antibacterial activity against methicillin-resistant Staphylococcus aureus NR 100 clinical isolate assessed as bacterial growth inhibition incubated for 16 to 18 hrs by CLSI based susceptibility testing method; format: functional; details: time 16-18 hrs
# Staphylococcus aureus [7] = experiment: Antibacterial activity against methicillin-resistant Staphylococcus aureus NR 119 clinical isolate assessed as bacterial growth inhibition incubated for 16 to 18 hrs by CLSI based susceptibility testing method; format: functional; details: time 16-18 hrs
# Staphylococcus aureus [8] = experiment: Antibacterial activity against methicillin-resistant Staphylococcus aureus NR 193 clinical isolate assessed as bacterial growth inhibition incubated for 16 to 18 hrs by CLSI based susceptibility testing method; format: functional; details: time 16-18 hrs
# Staphylococcus aureus [9] = experiment: Antibacterial activity against methicillin-resistant Staphylococcus aureus NR 129 clinical isolate assessed as bacterial growth inhibition incubated for 16 to 18 hrs by CLSI based susceptibility testing method; format: functional; details: time 16-18 hrs
# Staphylococcus aureus [10] = experiment: Antibacterial activity against methicillin-resistant Staphylococcus aureus NR 198 clinical isolate assessed as bacterial growth inhibition incubated for 16 to 18 hrs by CLSI based susceptibility testing method; format: functional; details: time 16-18 hrs
# Staphylococcus aureus [11] = experiment: Antibacterial activity against methicillin-resistant Staphylococcus aureus NR 194 clinical isolate assessed as bacterial growth inhibition incubated for 16 to 18 hrs by CLSI based susceptibility testing method; format: functional; details: time 16-18 hrs
# Staphylococcus aureus [12] = experiment: Antibacterial activity against methicillin-resistant Staphylococcus aureus NR 192 clinical isolate assessed as bacterial growth inhibition incubated for 16 to 18 hrs by CLSI based susceptibility testing method; format: functional; details: time 16-18 hrs
# Staphylococcus aureus [13] = experiment: Antibacterial activity against methicillin-resistant Staphylococcus aureus NR 186 clinical isolate assessed as bacterial growth inhibition incubated for 16 to 18 hrs by CLSI based susceptibility testing method; format: functional; details: time 16-18 hrs
# Staphylococcus aureus [14] = experiment: Antibacterial activity against methicillin-sensitive Staphylococcus aureus ATCC 29213 clinical isolate assessed as bacterial growth inhibition incubated for 16 to 18 hrs by CLSI based susceptibility testing method; format: functional; details: time 16-18 hrs
# [15] = Selectivity index, ratio of CC50 for African green monkey Vero cells to IC50 for Mycobacterium tuberculosis H37Rv ATCC 27294; format: toxicity; details: read-out: Selectivity Index
# [16] = Cytotoxicity against African green monkey Vero cells assessed as reduction in cell viability incubated for 72 hrs by MTT assay; format: toxicity, cell-based; details: chlorocebus sabaeus
# Klebsiella pneumoniae = experiment: Antibacterial activity against Klebsiella pneumoniae BAA 1705 assessed as bacterial growth inhibition incubated for 16 to 18 hrs by CLSI based susceptibility testing method; format: functional; details: time 16-18 hrs
# [17] = system: Mycobacterium tuberculosis; experiment: Antimycobacterial activity against Mycobacterium tuberculosis H37Rv ATCC 27294 assessed as bacterial growth inhibition incubated for 7 days by resazurin dye based assay; format: functional; details: H37Rv ATCC 27294, 168 h, time 7 day
# Escherichia coli = experiment: Antibacterial activity against Escherichia coli ATCC 25922 assessed as bacterial growth inhibition incubated for 16 to 18 hrs by CLSI based susceptibility testing method; format: functional; details: time 16-18 hrs
# Staphylococcus aureus [18] = experiment: Antibacterial activity against Staphylococcus aureus ATCC 29213 assessed as bacterial growth inhibition incubated for 16 to 18 hrs by CLSI based susceptibility testing method; format: functional; details: time 16-18 hrs
# [19] = system: Mycobacteroides abscessus; experiment: Antimycobacterial activity against Mycobacterium abscessus ATCC 19977 assessed as bacterial growth inhibition incubated for 7 days by resazurin dye based assay; format: functional; details: ATCC 19977, 168 h, time 7 day
# Mycobacteroides chelonae = experiment: Antimycobacterial activity against Mycobacteroides chelonae ATCC 35752 assessed as bacterial growth inhibition incubated for 7 days by resazurin dye based assay; format: functional; details: ATCC 35752, 168 h, time 7 day
# Pseudomonas aeruginosa = experiment: Antibacterial activity against Pseudomonas aeruginosa ATCC 27853 assessed as bacterial growth inhibition incubated for 16 to 18 hrs by CLSI based susceptibility testing method; format: functional; details: time 16-18 hrs
# [20] = system: Mycolicibacterium fortuitum; experiment: Antimycobacterial activity against Mycobacterium fortuitum ATCC 6841 assessed as bacterial growth inhibition incubated for 7 days by resazurin dye based assay; format: functional; details: ATCC 6841, 168 h, time 7 day
# Acinetobacter baumannii = experiment: Antibacterial activity against Acinetobacter baumannii BAA 1605 assessed as bacterial growth inhibition incubated for 16 to 18 hrs by CLSI based susceptibility testing method; format: functional; details: time 16-18 hrs
# [21] = Selectivity index, ratio of CC50 for African green monkey Vero cells to IC50 for Staphylococcus aureus ATCC 29213; format: toxicity; details: read-out: Selectivity Index
structure (smiles),measurement,setting,value
CN[C@H](CC(C)C)C(=O)N[C@H]1C(=O)N[C@@H](CC(N)=O)C(=O)N[C@H]2C(=O)N[C@H]3C(=O)N[C@H](C(=O)N[C@H](C(=O)O)c4cc(O)cc(O)c4-c4cc3ccc4O)[C@H](O)c3ccc(c(Cl)c3)Oc3cc2cc(c3O[C@@H]2O[C@H](CO)[C@@H](O)[C@H](O)[C@H]2O[C@H]2C[C@](C)(N)[C@H](O)[C@H](C)O2)Oc2ccc(cc2Cl)[C@H]1O [VANCOMYCIN],MIC,Staphylococcus aureus [1],> 64 µg/mL
same,MIC,Staphylococcus aureus [2],> 64 µg/mL
same,Activity,Staphylococcus aureus [3],7.7%
same,MIC,Staphylococcus aureus [4],> 64 µg/mL
C[C@@H](O)[C@H]1C(=O)N2C(C(=O)O)=C(S[C@@H]3CN[C@H](C(=O)N(C)C)C3)[C@H](C)[C@H]12 [MEROPENEM],MIC,Staphylococcus aureus [5],32 µg/mL
same,MIC,Staphylococcus aureus [1],32 µg/mL
same,MIC,Staphylococcus aureus [6],32 µg/mL
same,MIC,Staphylococcus aureus [7],64 µg/mL
same,MIC,Staphylococcus aureus [8],64 µg/mL
same,MIC,Staphylococcus aureus [2],4 µg/mL
same,MIC,Staphylococcus aureus [9],2 µg/mL
same,MIC,Staphylococcus aureus [10],32 µg/mL
same,MIC,Staphylococcus aureus [11],1 µg/mL
same,MIC,Staphylococcus aureus [12],8 µg/mL
same,MIC,Staphylococcus aureus [13],4 µg/mL
same,MIC,Staphylococcus aureus [4],64 µg/mL
same,MIC,Staphylococcus aureus [14],0.125 µg/mL
Cc1ccc(-n2c(C)cc(/C=C3\S/C(=N/c4nccs4)NC3=O)c2C)cc1C,selectivity ratio,[15],80
same,CC50 at 72 h,[16],40 µg/mL
same,MIC,Klebsiella pneumoniae,> 64 µg/mL
same,MIC,[17],0.5 µg/mL
same,MIC,Escherichia coli,> 64 µg/mL
same,MIC,Staphylococcus aureus [18],16 µg/mL
same,MIC,[19],> 64 µg/mL
same,MIC,Mycobacteroides chelonae,> 64 µg/mL
same,MIC,Pseudomonas aeruginosa,> 64 µg/mL
same,MIC,[20],> 64 µg/mL
same,MIC,Acinetobacter baumannii,> 64 µg/mL
C[C@H]1COc2c(N3CCN(C)CC3)c(F)cc3c(=O)c(C(=O)O)cn1c23 [LEVOFLOXACIN ANHYDROUS],MIC,Staphylococcus aureus [5],16 µg/mL
same,MIC,Staphylococcus aureus [1],> 64 µg/mL
same,MIC,Staphylococcus aureus [6],0.25 µg/mL
same,MIC,Staphylococcus aureus [7],16 µg/mL
same,MIC,Staphylococcus aureus [8],32 µg/mL
same,MIC,Klebsiella pneumoniae,64 µg/mL
same,MIC,Staphylococcus aureus [2],32 µg/mL
same,MIC,Staphylococcus aureus [9],0.25 µg/mL
same,MIC,Staphylococcus aureus [10],32 µg/mL
same,MIC,Staphylococcus aureus [11],0.125 µg/mL
same,MIC,Staphylococcus aureus [18],0.25 µg/mL
same,MIC,Staphylococcus aureus [12],8 µg/mL
same,MIC,Staphylococcus aureus [13],4 µg/mL
same,Activity,Staphylococcus aureus [3],10%
same,MIC,Staphylococcus aureus [4],32 µg/mL
same,MIC,Staphylococcus aureus [14],0.25 µg/mL
COc1ccccc1-n1c(C)cc(/C=C2\S/C(=N/c3nccs3)NC2=O)c1C,MIC,Staphylococcus aureus [5],2 µg/mL
same,MIC,Staphylococcus aureus [1],2 µg/mL
same,MIC,Staphylococcus aureus [6],1 µg/mL
same,MIC,Staphylococcus aureus [7],2 µg/mL
same,CC50 at 72 h,[16],40 µg/mL
same,MIC,Staphylococcus aureus [8],2 µg/mL
same,MIC,Klebsiella pneumoniae,> 64 µg/mL
same,MIC,Staphylococcus aureus [2],2 µg/mL
same,MIC,Staphylococcus aureus [9],2 µg/mL
same,MIC,Staphylococcus aureus [10],2 µg/mL
same,MIC,[17],2 µg/mL
same,MIC,Escherichia coli,> 64 µg/mL
same,MIC,Staphylococcus aureus [11],2 µg/mL
same,MIC,Staphylococcus aureus [18],0.5 µg/mL
same,MIC,[19],> 64 µg/mL
same,MIC,Mycobacteroides chelonae,> 64 µg/mL
same,MIC,Pseudomonas aeruginosa,> 64 µg/mL
same,MIC,Staphylococcus aureus [12],2 µg/mL
same,MIC,[20],> 64 µg/mL
same,MIC,Staphylococcus aureus [13],1 µg/mL
same,MIC,Acinetobacter baumannii,> 64 µg/mL
same,Activity,Staphylococcus aureus [3],>11%
same,MIC,Staphylococcus aureus [4],2 µg/mL
same,MIC,Staphylococcus aureus [14],0.5 µg/mL
same,selectivity ratio,[21],80
Cc1cc(/C=C2\S/C(=N/c3nccs3)NC2=O)c(C)n1-c1ccccc1Cl,MIC,Klebsiella pneumoniae,> 64 µg/mL
same,MIC,[17],16 µg/mL
same,MIC,Escherichia coli,> 64 µg/mL
same,MIC,Staphylococcus aureus [18],4 µg/mL
same,MIC,[19],> 64 µg/mL
same,MIC,Mycobacteroides chelonae,> 64 µg/mL
same,MIC,Pseudomonas aeruginosa,> 64 µg/mL
same,MIC,[20],> 64 µg/mL
same,MIC,Acinetobacter baumannii,> 64 µg/mL
Cc1cc(/C=C2\S/C(=N/c3nccs3)NC2=O)c(C)n1-c1ccccc1O,MIC,Klebsiella pneumoniae,> 64 µg/mL
same,MIC,[17],16 µg/mL
same,MIC,Escherichia coli,> 64 µg/mL
same,MIC,Staphylococcus aureus [18],1 µg/mL
same,MIC,[19],> 64 µg/mL
same,MIC,Mycobacteroides chelonae,> 64 µg/mL
same,MIC,Pseudomonas aeruginosa,> 64 µg/mL
same,MIC,[20],> 64 µg/mL
same,MIC,Acinetobacter baumannii,> 64 µg/mL
Cc1cc(/C=C2\S/C(=N/c3nccs3)NC2=O)c(C)n1-c1ccc([N+](=O)[O-])c(C(F)(F)F)c1,MIC,Klebsiella pneumoniae,> 64 µg/mL
same,MIC,[17],> 64 µg/mL
same,MIC,Escherichia coli,> 64 µg/mL
same,MIC,Staphylococcus aureus [18],> 64 µg/mL
same,MIC,[19],> 64 µg/mL
same,MIC,Mycobacteroides chelonae,> 64 µg/mL
same,MIC,Pseudomonas aeruginosa,> 64 µg/mL
same,MIC,[20],> 64 µg/mL
same,MIC,Acinetobacter baumannii,> 64 µg/mL
Cc1cc(/C=C2\S/C(=N/c3nccs3)NC2=O)c(C)n1-c1cc(Cl)ccc1O,MIC,Klebsiella pneumoniae,> 64 µg/mL
same,MIC,[17],32 µg/mL
same,MIC,Escherichia coli,> 64 µg/mL
same,MIC,Staphylococcus aureus [18],1 µg/mL
same,MIC,[19],> 64 µg/mL
same,MIC,Mycobacteroides chelonae,> 64 µg/mL
same,MIC,Pseudomonas aeruginosa,> 64 µg/mL
same,MIC,[20],> 64 µg/mL
same,MIC,Acinetobacter baumannii,> 64 µg/mL
